In patent publication US20240124469A1, “PIM KINASE INHIBITOR” (Hangzhou Biosun Pharmaceutical Co., Ltd., priority 2021, published 2024) one finds IC50 data, which are given here for 22 compounds.

The structures appear in SMILES notation. Where only a bound is given, the exact number is not on record here.

As usually defined, the IC50 is the point on the concentration scale where inhibition reaches its midpoint.

The target of assay [1] is PIM3 (Homo sapiens (Human), UniProt Q86V86). As to the kind of experiment: PIM3 kinase activity test (Mobility shift assay). Format: biochemical. The procedure:
(§1) The efficacy of the compounds on the activity of PIM1/2/3 was tested by utilizing the Mobility shift assay method, with the specific procedures shown as follows: the test compounds were each dissolved in DMSO to be prepared into a 10 mM stock solution; for each of the test compounds, the stock solution was subjected to a 3-fold dilution from an initial concentration of 10 μM to obtain 10 concentrations.
(§2) PIM1, PIM2, and PIM3 (all three kinases are from Carna) were each prepared with 1× Kinase buffer into a kinase solution at a concentration that was 2.5 times the final concentration. 10 μL of kinase solution at a concentration that was 2.5 times the final concentration was added to each of the compound wells and the positive control well, and 10 μL of 1× Kinase buffer was added to the negative control well. The plate was centrifuged at 1000 rpm for 30 s, mixed well by shaking, and then incubated at room temperature for 10 min. A mixed solution of ATP and Kinase substrate 20 (from GL) at a concentration that was 25/15 times the final concentration was prepared with 1× Kinase buffer. The reaction was started by adding 15 μL of the mixed solution of ATP and Kinase substrate 20 at a concentration that was 25/15 times the final concentration. The 384-well plate was centrifuged at 1000 rpm for 30 s, mixed well by shaking, and then incubated at room temperature for 60 min. 30 μL of stop assay buffer was added to stop the kinase reaction. The plate was centrifuged at 1000 rpm for 30 s and mixed well by shaking. The conversion rates were read using Caliper EZ Reader.
(§3) The IC50 values of the test compounds for kinase activity were obtained by adopting a fitted dose-response curve of analytic software GraphPad Prism 5.

Assay [2] addresses PIM1 (Homo sapiens (Human), UniProt P11309). Nature of the assay: PIM1 kinase activity test (Mobility shift assay). Format: biochemical. As to the method: as §1, §2, §3
For assay [3], the target named is PIM2 (Homo sapiens (Human), UniProt Q9P1W9). Nature of the assay: PIM2 kinase activity test (Mobility shift assay). Format: biochemical. The procedure:
as §1, §2, §3

Assay [4] deals with Ba/F3-EPOR-JAK2-V617F. As to the kind of experiment: Cell inhibitory activity test (72 h CTG). Format: cell-based. The procedure:
The EPOR-JAK2-V617F gene was transferred into Ba/F3 wild-type cells by a retrovirus packaging system to obtain a stably transfected cell line Ba/F3-EPOR-JAK2-V617F, which was used for the cell inhibitory activity ICso test of the compounds (reference: Blood. 2010; 115(15): 3109-3117). The specific procedures were as follows: • Cells were seeded in a 96-well plate, treated with the test compounds from DMSO stock solutions (final concentration of DMSO is 0.2%), and cultured at 37° C. with 5% CO2 for 72 h. Then, the cell proliferation inhibitory activity was assayed by the CTG (Cell-Titer Glo) method. For each of the test compounds, the stock solution was subjected to a 3-fold dilution from an initial concentration of 10 μM to obtain 9 concentrations. The dose-response relationship curve was fitted by using Graphpad 7.0 analysis software, and IC50 values were obtained.

Chain of PIM2 (Q9P1W9 whole entry): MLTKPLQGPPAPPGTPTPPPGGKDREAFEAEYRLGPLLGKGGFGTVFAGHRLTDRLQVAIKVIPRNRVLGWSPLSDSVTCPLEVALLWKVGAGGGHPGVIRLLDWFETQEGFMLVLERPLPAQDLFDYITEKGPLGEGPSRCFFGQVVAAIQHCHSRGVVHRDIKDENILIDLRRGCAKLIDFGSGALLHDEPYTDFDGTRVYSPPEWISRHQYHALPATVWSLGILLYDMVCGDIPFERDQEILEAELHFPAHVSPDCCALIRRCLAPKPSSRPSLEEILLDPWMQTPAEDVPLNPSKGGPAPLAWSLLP
Chain of PIM1 (P11309 whole entry): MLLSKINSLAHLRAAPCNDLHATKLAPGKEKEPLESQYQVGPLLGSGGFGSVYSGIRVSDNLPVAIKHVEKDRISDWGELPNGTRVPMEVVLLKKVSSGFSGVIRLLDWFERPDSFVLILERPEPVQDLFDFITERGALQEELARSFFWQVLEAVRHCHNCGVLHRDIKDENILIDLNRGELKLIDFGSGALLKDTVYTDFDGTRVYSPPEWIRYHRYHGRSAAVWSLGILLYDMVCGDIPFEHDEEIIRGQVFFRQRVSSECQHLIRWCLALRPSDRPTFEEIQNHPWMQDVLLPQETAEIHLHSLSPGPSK

In the case of `O[C@H]1CCC[C@@H](Nc2ccc3ncc(-c4cccc(C(F)(F)F)c4)n3n2)CC1` (relative stereo) [Compound 23, cis-4-[[3-[3-(trifluoromethyl)phenyl]imidazo[1,2-b]pyridazin-6-yl]amino]cycloheptanol], the IC50 in assay [1] is 1000 to 10000 nM; in assay [2] it was 100 to 1000 nM; in assay [3], more than 10000 nM.
The corresponding values for `CC(C)(O)[C@H]1CC[C@H](Nc2ccc3ncc(-c4cccs4)n3n2)CC1` [Compound 14, 2-[(1r,4r)-4-[[3-(2-thienyl)imidazo[1,2-b]pyridazin-6-yl]amino]cyclohexyl]propan-2-ol] are 100 to 1000 nM, 10 to 100 nM and 100 to 1000 nM.
As to `FC(F)(F)c1cccc(-c2cnc3ccc(NCC4CC5(CCNCC5)C4)nn23)c1` [Compound 15, N-(7-azaspiro [3.5]nonan-2-ylmethyl)-3-[3-(trifluoromethyl)phenyl]imidazo[1,2-b]pyridazin-6-amine], the values for the half-inhibitory concentration (IC50) in assay [1], in assay [2] and in assay [3] were 100 to 1000 nM, 10 to 100 nM and 1000 to 10000 nM, respectively.
`FC(F)(F)c1cccc(-c2cnc3ccc(NC4CC5(CCNCC5)C4)nn23)c1` [Compound 16, N-(7-azaspiro[3.5]nonan-2-yl)-3-[3-(trifluoromethyl)phenyl]imidazo[1,2-b]pyridazin-6-amine]: the IC50 in assay [1] was 10 to 100 nM; in assay [4] it was more than 150 nM; in assay [2] it was 2 to 10 nM; in assay [3] it was 100 to 1000 nM.
On to `CC(C)(O)[C@H]1CC[C@H](Nc2ccc3ncc(-c4nccs4)n3n2)CC1` [Compound 17, 2-[(1r,4r)-4-[(3-thiazol-2-ylimidazo[1,2-b]pyridazin-6-yl)amino]cyclohexyl]propan-2-ol], for which the half-maximal inhibitory concentration (IC50) in assay [1], in assay [2] and in assay [3] was 100 to 1000 nM each time.
Regarding `FC(F)(F)c1cccc(-c2cnc3ccc(NCC4CC5(CCNC5)C4)nn23)c1` (stereo not shown) [Compound 18, N-(6-azaspiro[3.4]octan-2-ylmethyl)-3-(3-(trifluoromethyl)phenyl)imidazo[1,2-b]pyridazin-6-amine], the results for the IC50 in assay [1], in assay [2] and in assay [3] were 100 to 1000 nM, 10 to 100 nM and 100 to 1000 nM, respectively.
As to `FC(F)(F)c1cccc(-c2cnc3ccc(NC4CCCNCC4)nn23)c1` (stereo not shown) [Compound 19, N-(azepan-4-yl)-3-[3-(trifluoromethyl)phenyl]imidazo[1,2-b]pyridazin-6-amine], the IC50 in assay [1] was 10 to 100 nM; in assay [2], 2 to 10 nM; in assay [3], 100 to 1000 nM.
In the same order, the values of `O[C@H]1CCCC[C@@H](Nc2ccc3ncc(-c4cccc(C(F)(F)F)c4)n3n2)C1` [Compound 21, (1S,3R)-3-[[3-[3-(trifluoromethyl)phenyl]imidazo[1,2-b]pyridazin-6-yl]amino]cycloheptanol] are 1000 to 10000 nM, 100 to 1000 nM and 1000 to 10000 nM.
Turning to `OC[C@@H]1CC[C@@H](Nc2ccc3ncc(-c4cccc(C(F)(F)F)c4)n3n2)CO1` [Compound 22, [(2S,5R)-5-[[3-[3-(trifluoromethyl)phenyl]imidazo[1,2-b]pyridazin-6-yl]amino]tetrahydropyran-2-yl]methanol], the concentration for half-maximal inhibition (IC50) lay in the range of 1000 to 10000 nM in assay [1], 10 to 100 nM in assay [2] and 1000 to 10000 nM in assay [3].
For `FC(F)(F)c1cccc(-c2cnc3ccc(NC4CC5(CCNC5)C4)nn23)c1` (stereo not shown) [Compound 24, N-(6-azaspiro [3.4]octan-2-yl)-3-(3-(trifluoromethyl)phenyl)imidazo[1,2-b]pyridazin-6-amine], the half-maximal inhibitory concentration (IC50) in assay [1] lay within 100 to 1000 nM; in assay [2] it was 100 to 1000 nM; in assay [3], 1000 to 10000 nM.
For the compound `OC[C@H]1CC[C@H](Nc2ccc3ncc(-c4cccc(C(F)(F)F)c4)n3n2)CO1` [Compound 25, [(2R,5S)-5-[[3-[3-(trifluoromethyl)phenyl]imidazo[1,2-b]pyridazin-6-yl]amino]tetrahydropyran-2-yl]methanol], the 50% inhibitory concentration (IC50) in assay [1] was 1000 to 10000 nM; in assay [2], 100 to 1000 nM; in assay [3], more than 10000 nM.
For the compound `CN1CCC2(CC1)CC(Nc1ccc3ncc(-c4cccc(C(F)(F)F)c4)n3n1)C2` [Compound 26, N-(7-methyl-7-azaspiro[3.5]nonan-2-yl)-3-(3-(trifluoromethyl)phenyl)imidazo[1,2-b]pyridazin-6-amine], the IC50 was 100 to 1000 nM in assay [1], 10 to 100 nM in assay [2] and 1000 to 10000 nM in assay [3].
The corresponding values for `CN1CCCC(Nc2ccc3ncc(-c4cccc(C(F)(F)F)c4)n3n2)CC1` (stereo not shown) [Compound 27, N-(1-methylazacycloheptan-4-yl)-3-[3-(trifluoromethyl)phenyl]imidazo[1,2-b]pyridazin-6-amine] are 100 to 1000 nM, 10 to 100 nM and 100 to 1000 nM.
Turning to `FC(F)(F)c1cccc(-c2cnc3ccc(NC4CC5(CCN(C6CC6)CC5)C4)nn23)c1` [Compound 30, N-(7-cyclopropyl-7-azaspiro [3.5]nonan-2-yl)-3-(3-(trifluoromethyl)phenyl)imidazo[1,2-b]pyridazin-6-amine], the concentration for half-maximal inhibition (IC50) was 1000 to 10000 nM in assay [1], 10 to 100 nM in assay [2] and more than 10000 nM in assay [3].
In the same order, the values of `CC(C)(O)[C@H]1CC[C@H](Nc2ccc3nc(C(=O)O)c(-c4cccc(C(F)(F)F)c4)n3n2)CC1` [Compound 42, 6-(((1r,4r)-4-(2-hydroxypropan-2-yl)cyclohexyl)amino)-3-(3-(trifluoromethyl)phenyl)imidazo[1,2-b]pyridazine-2-carboxylic acid] are 1000 to 10000 nM, 100 to 1000 nM and more than 10000 nM.
The corresponding values for `CC(C)(O)[C@H]1CC[C@H](Nc2ccc3nc(C#N)c(-c4cccc(C(F)(F)F)c4)n3n2)CC1` [Compound 43, 6-(((1r,4r)-4-(2-hydroxypropan-2-yl)cyclohexyl)amino)-3-(3-(trifluoromethyl)phenyl)imidazo[1,2-b] pyridazine-2-carbonitrile] are more than 10000 nM, 100 to 1000 nM and more than 10000 nM.
In the same order, the values of `O[C@@H]1CCCC[C@@H](Nc2ccc3ncc(-c4cccc(C(F)(F)F)c4)n3n2)C1` [Compound 44, (1R,3R)-3-((3-(3-(trifluoromethyl)phenyl)imidazo[1,2-b]pyridazin-6-yl)amino)cycloheptanol] are more than 10000 nM, 100 to 1000 nM and more than 10000 nM.
Take `O[C@@H]1CCC[C@@H](Nc2ccc3ncc(-c4cccc(C(F)(F)F)c4)n3n2)CC1` [Compound 45, (1R,4R)-4-((3-(3-(trifluoromethyl)phenyl)imidazo[1,2-b]pyridazin-6-yl)amino)cycloheptanol]: the IC50 was in the range of 1000 to 10000 nM in assay [1], 10 to 100 nM in assay [2] and 1000 to 10000 nM in assay [3].
`OC[C@H]1CC[C@H](Nc2ccc3ncc(-c4ccc(C(F)(F)F)s4)n3n2)CO1` [Compound 47, [(2R,5S)-5-[[3-[5-(trifluoromethyl)-2-thienyl]imidazo[1,2-b]pyridazin-6-yl]amino]tetrahydropyran-2-yl]methanol]: the results for the IC50 in assay [1], in assay [2] and in assay [3] were 1000 to 10000 nM, 10 to 100 nM and more than 10000 nM, respectively.
For `CC(C)(O)[C@H]1CC[C@H](Nc2ccc3ncc(-c4cccc(-c5ccco5)c4)n3n2)CC1` [Compound 48, 2-((1r,4r)-4-((3-(3-(furan-2-yl)phenyl)imidazo[1,2-b]pyridazin-6-yl)amino)cyclohexyl)propan-2-ol], the IC50 in assay [1] was 100 to 1000 nM; in assay [2], 10 to 100 nM; in assay [3] it was more than 10000 nM.
Take `CN1CCC(CNc2ccc3ncc(-c4cccc(N(C)C)c4)n3n2)CC1` [Compound 50, 3-(3-(dimethylamino)phenyl)-N-((1-methylpiperidin-4-yl)methyl)imidazo[1,2-b]pyridazin-6-amine]: the figures for the IC50 in assay [1], in assay [2] and in assay [3] were 1000 to 10000 nM, 100 to 1000 nM and more than 10000 nM, respectively.
In the same order, the values of `CC(C)(O)[C@H]1CC[C@H](Nc2ccc3ncc(-c4cccc(S(C)(=O)=O)c4)n3n2)CC1` [Compound 51, 2-[(1r,4r)-4-[[3-(3-methylsulfonylphenyl)imidazo[1,2-b]pyridazin-6-yl]amino]cyclohexyl]propan-2-ol] are more than 10000 nM, 100 to 1000 nM and 1000 to 10000 nM.
